Laboratory results as given in ChEMBL document CHEMBL1177813, “Design and synthesis of trivalent ligands targeting opioid, cholecystokinin, and melanocortin receptors for the treatment of pain” (Bioorg Med Chem Lett, 2010).
pIC50, pKi: −log10 of the molar value. Active and inactive are the calls of the source. No cut-off for these calls is given here. Where a SMILES comes first, the peptide text is derived from it. [ ]: non-standard residue; d: D form. Nle = CCCC[C@H](N)C(=O)O

Columns and labels:
Cavia porcellus = organism: Cavia porcellus; test: […] activity at CCK receptor in Hartley guinea pig ileum longitudinal muscle with myenteric plexus assessed as inhibition of CCK8-stimulated muscle contraction at 1 uM; assay type: functional, tissue-based
[1] = Agonist activity at CCK receptor in Hartley guinea pig ileum longitudinal muscle with myenteric plexus assessed as inhibition of electrically-stimulated muscle contraction at 1 uM relative to KCl; assay type: functional, Cavia porcellus; set-up: scale not given: the % may be the effect or the level left
[2] = biological target: T1, Cholecystokinin receptor type A (Homo sapiens, UniProt P32238); test: Displacement of [125I]CCK-8(SO3) from human CCK1 receptor expressed in human HEK293 cells; assay type: cell-based; details: for Ki: hek293
T1 sequence (P32238 whole entry): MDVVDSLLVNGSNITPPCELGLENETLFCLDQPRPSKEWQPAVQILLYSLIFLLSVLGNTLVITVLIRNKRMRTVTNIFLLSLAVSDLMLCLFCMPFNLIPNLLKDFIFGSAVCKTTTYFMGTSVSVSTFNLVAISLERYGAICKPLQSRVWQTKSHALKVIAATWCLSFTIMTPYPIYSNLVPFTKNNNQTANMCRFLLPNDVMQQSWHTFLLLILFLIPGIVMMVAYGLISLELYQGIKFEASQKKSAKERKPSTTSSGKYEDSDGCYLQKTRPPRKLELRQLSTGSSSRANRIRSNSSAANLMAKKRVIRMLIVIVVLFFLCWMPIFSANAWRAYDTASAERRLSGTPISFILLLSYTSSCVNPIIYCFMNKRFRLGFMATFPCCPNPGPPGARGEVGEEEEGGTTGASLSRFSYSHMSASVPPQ

[3] = biological target: T2, Gastrin/cholecystokinin type B receptor (Homo sapiens, UniProt P32239); test: Displacement of [125I]CCK-8(SO3) from human CCK2 receptor expressed in human HEK293 cells; assay type: cell-based; details: for Ki: hek293; for pKi: read-out: Ki
T2 sequence (P32239 whole entry): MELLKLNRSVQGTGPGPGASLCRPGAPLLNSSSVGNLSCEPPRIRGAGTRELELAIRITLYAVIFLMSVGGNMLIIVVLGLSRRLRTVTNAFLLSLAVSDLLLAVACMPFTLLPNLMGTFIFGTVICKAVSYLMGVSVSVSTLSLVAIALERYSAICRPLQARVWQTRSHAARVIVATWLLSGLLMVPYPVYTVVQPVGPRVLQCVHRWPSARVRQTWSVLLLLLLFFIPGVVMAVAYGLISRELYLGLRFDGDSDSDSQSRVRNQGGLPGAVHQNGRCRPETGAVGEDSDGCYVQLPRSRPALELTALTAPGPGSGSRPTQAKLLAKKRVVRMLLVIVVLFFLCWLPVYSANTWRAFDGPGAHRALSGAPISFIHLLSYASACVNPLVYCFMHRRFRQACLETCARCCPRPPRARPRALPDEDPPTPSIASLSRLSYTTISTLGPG

Melanocortin receptor 4 = Melanocortin receptor 4 (Homo sapiens, UniProt P32245); test: Displacement of Eu-NDP-alphaMSH from human MC4 receptor expressed in human HEK293 cells; assay type: cell-based
Mu-type opioid receptor [4] = biological target: Mu-type opioid receptor (Cavia porcellus, UniProt P97266); test: Agonist activity at mu opioid receptor in guinea pig ileum assessed as inhibition of electrically-stimulated muscle contraction; assay type: functional, tissue-based
[5] = biological target: Delta-type opioid receptor (Homo sapiens, UniProt P41143); test: Displacement of [3H]DPDPE from human delta opioid receptor expressed in mouse HN9.10 cells; assay type: cell-based
Mu-type opioid receptor [6] = biological target: Mu-type opioid receptor (Rattus norvegicus, UniProt P33535); test: Displacement of [3H]DAMGO from rat mu opioid receptor expressed in mouse HN9.10 cells; assay type: cell-based
[7] = biological target: Delta-type opioid receptor (Mus musculus, UniProt P32300); test: Agonist activity at delta opioid receptor in mouse vas deferens assessed as inhibition of electrically-stimulated muscle contraction; assay type: functional, tissue-based
Chain of Delta-type opioid receptor (Mus musculus, UniProt P32300) (P32300 whole entry): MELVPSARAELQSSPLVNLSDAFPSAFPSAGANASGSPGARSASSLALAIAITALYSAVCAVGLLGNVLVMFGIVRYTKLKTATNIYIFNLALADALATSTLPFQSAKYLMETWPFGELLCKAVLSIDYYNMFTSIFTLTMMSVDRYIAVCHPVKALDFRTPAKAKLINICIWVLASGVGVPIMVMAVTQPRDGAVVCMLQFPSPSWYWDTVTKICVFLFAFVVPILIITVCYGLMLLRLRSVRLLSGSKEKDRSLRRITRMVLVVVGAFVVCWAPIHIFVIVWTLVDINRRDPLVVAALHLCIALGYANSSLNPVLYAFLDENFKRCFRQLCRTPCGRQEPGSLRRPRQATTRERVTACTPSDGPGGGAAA

Chain of Melanocortin receptor 4 (P32245 whole entry): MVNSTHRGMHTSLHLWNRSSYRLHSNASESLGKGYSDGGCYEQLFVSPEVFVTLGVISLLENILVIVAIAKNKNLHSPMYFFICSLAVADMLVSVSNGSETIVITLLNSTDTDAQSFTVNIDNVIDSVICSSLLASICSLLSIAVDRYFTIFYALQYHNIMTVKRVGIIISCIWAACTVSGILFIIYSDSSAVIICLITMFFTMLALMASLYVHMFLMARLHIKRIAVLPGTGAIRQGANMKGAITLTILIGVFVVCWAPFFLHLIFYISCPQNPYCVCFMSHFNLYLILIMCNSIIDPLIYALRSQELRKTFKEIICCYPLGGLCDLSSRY
Chain of Mu-type opioid receptor (Cavia porcellus, UniProt P97266) (P97266 whole entry): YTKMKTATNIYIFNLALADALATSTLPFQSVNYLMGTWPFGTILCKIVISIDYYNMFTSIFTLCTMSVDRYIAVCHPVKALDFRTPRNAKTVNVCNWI
Chain of Delta-type opioid receptor (Homo sapiens, UniProt P41143) (P41143 whole entry): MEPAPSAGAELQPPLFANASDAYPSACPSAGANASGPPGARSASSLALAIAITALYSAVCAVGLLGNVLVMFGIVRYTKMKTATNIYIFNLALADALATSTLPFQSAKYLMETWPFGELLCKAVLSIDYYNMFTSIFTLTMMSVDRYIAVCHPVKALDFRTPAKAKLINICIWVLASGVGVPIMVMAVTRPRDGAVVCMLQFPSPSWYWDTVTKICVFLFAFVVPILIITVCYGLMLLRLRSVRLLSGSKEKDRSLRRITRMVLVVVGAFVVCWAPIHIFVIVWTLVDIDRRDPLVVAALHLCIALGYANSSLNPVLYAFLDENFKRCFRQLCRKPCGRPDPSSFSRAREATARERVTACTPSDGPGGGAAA
Chain of Mu-type opioid receptor (Rattus norvegicus, UniProt P33535) (P33535 whole entry): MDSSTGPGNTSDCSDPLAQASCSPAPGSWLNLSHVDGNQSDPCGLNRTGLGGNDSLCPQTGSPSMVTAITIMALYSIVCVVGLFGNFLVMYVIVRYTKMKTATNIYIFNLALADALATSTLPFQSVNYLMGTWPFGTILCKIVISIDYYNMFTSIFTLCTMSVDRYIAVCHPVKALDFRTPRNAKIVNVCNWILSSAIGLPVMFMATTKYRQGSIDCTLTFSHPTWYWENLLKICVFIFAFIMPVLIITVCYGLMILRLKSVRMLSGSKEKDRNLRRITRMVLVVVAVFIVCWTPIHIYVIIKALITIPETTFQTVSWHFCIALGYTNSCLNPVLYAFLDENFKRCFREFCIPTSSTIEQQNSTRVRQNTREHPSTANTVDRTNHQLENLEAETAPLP

CCCC[C@H](NC(=O)[C@H](Cc1c[nH]c2ccccc12)NC(=O)[C@H](CCCNC(=N)N)NC(=O)[C@@H](Cc1ccc2ccccc2c1)NC(=O)[C@H](Cc1cnc[nH]1)NC(=O)[C@H]1Cc2ccccc2CN1C(=O)[C@@H](N)Cc1c(C)cc(O)cc1C)C(=O)N[C@@H](CC(=O)O)C(=O)N[C@@H](Cc1ccccc1)C(N)=O
Ke (Cavia porcellus): inactive | Activity [1]: 0%

C[C@@H](NC(=O)[C@@H](N)Cc1ccc(O)cc1)C(=O)NCC(=O)N[C@@H](Cc1ccccc1)C(=O)NCCCC[C@H](NC(=O)[C@H](Cc1c[nH]c2ccccc12)NC(=O)[C@H](CCCNC(=N)N)NC(=O)[C@@H](Cc1ccc(Cl)cc1)NC(=O)[C@@H](N)Cc1cnc[nH]1)C(=O)N[C@@H](CC(=O)O)C(=O)N[C@@H](Cc1ccccc1)C(N)=O
Ke (Cavia porcellus): inactive | Ki [2]: Not Active | Ki [3]: Not Active | Activity [1]: 0%

CCCC[C@H](NC(=O)[C@H](Cc1c[nH]c2ccccc12)NC(=O)[C@H](CCCN=C(N)N)NC(=O)[C@@H](Cc1ccc2ccccc2c1)NC(=O)[C@H](Cc1cnc[nH]1)NC(=O)[C@@H](N)Cc1ccccc1)C(N)=O
pIC50 (Melanocortin receptor 4): 6.70

C[C@@H](NC(=O)[C@@H](N)Cc1ccc(O)cc1)C(=O)NCC(=O)N[C@@H](Cc1ccccc1)C(=O)NCCCC[C@H](NC(=O)[C@H](Cc1c[nH]c2ccccc12)NC(=O)[C@H](CCCN=C(N)N)NC(=O)[C@@H](Cc1ccc(Cl)cc1)NC(=O)[C@@H](N)Cc1cnc[nH]1)C(=O)N[C@@H](CC(=O)O)C(=O)N[C@@H](Cc1ccccc1)C(N)=O
pIC50 (Mu-type opioid receptor [4]): 6.48

CCCC[C@H](NC(=O)[C@H](Cc1c[nH]c2ccccc12)NC(=O)[C@H](CCCN=C(N)N)NC(=O)[C@@H](Cc1ccc2ccccc2c1)NC(=O)[C@H](Cc1cnc[nH]1)NC(=O)[C@H](Cc1ccccc1)NC(=O)[C@@H](C)NC(=O)[C@@H](N)Cc1c(C)cc(O)cc1C)C(=O)N[C@@H](CC(=O)O)C(=O)N[C@@H](Cc1ccccc1)C(N)=O
pIC50 [5]: 8.10 | pKi [5]: 8.43 | pIC50 [2]: 9.10 | pIC50 [3]: 6.70 | pKi [3]: 6.74 | pIC50 (Mu-type opioid receptor [6]): 8.00 | pKi (Mu-type opioid receptor [6]): 8.31 | pIC50 [7]: 6.96 | pIC50 (Melanocortin receptor 4): 6.30 | pIC50 (Mu-type opioid receptor [4]): 7.18

CCCC[C@H](NC(=O)[C@H](Cc1c[nH]c2ccccc12)NC(=O)[C@H](CCCN=C(N)N)NC(=O)[C@@H](Cc1ccc2ccccc2c1)NC(=O)[C@H](Cc1cnc[nH]1)NC(=O)[C@H]1Cc2ccccc2CN1C(=O)[C@@H](N)Cc1c(C)cc(O)cc1C)C(=O)N[C@@H](CC(=O)O)C(=O)N[C@@H](Cc1ccccc1)C(N)=O
pIC50 [5]: 7.90 | pKi [5]: 8.21 | pIC50 [2]: 7.50 | pKi ([2]; read-out: Ki): 7.49 | pIC50 [3]: 6.90 | pKi [3]: 7.00 | pIC50 (Mu-type opioid receptor [6]): 7.40 | pKi (Mu-type opioid receptor [6]): 7.74 | pIC50 [7]: 6.89 | pIC50 (Melanocortin receptor 4): 6.80 | pIC50 (Mu-type opioid receptor [4]): 6.24

Cc1cc(O)cc(C)c1C[C@H](N)C(=O)N1CC(=O)N[C@@H](Cc2cnc[nH]2)C(=O)N[C@H](Cc2ccccc2)C(=O)N[C@@H](CCCNC(=N)N)C(=O)N[C@@H](Cc2c[nH]c3ccccc23)C(=O)N[C@H](C(=O)N[C@@H](CC(=O)O)C(=O)N[C@@H](Cc2ccccc2)C(N)=O)CSSC[C@@H](N)C1=O
Ke (Cavia porcellus): inactive | Ki [3]: Not Active | Activity [1]: 0%

CCCC[C@H](NC(=O)[C@@H](N)Cc1ccc(O)cc1)C(=O)N[C@@H](CC(=O)O)C(=O)N[C@@H](Cc1ccccc1)C(N)=O (H-Y[Nle]DF-NH2)
Ki [2]: Not Active

CCCC[C@H](NC(=O)[C@H](Cc1c[nH]c2ccccc12)NC(=O)[C@H](CCCNC(=N)N)NC(=O)[C@@H](Cc1ccc2ccccc2c1)NC(=O)[C@H](Cc1cnc[nH]1)NC(=O)[C@H](Cc1ccccc1)NC(=O)[C@@H](C)NC(=O)[C@@H](N)Cc1c(C)cc(O)cc1C)C(=O)N[C@@H](CC(=O)O)C(=O)N[C@@H](Cc1ccccc1)C(N)=O
Ke (Cavia porcellus): inactive | Activity [1]: 0%
